How the values were obtained:
[1] = target: T1, human NHE3 (Homo sapiens, UniProt P48764); experiment: NHE activity in PS 120 fibroblasts transfected with human NHE3 (BCECF pH change rate); assay type: cell-based
T1 construct: expressed in transfected cells; host or cells: PS 120 NHE-deficient fibroblasts
Method: The following describes the test used to determine that squalamine inhibits NHE3, but not NHE1 or NHE2. NHE deficient fibroblast cells (PS 120) transfected with an individual human NHE gene were loaded with a pH sensitive dye 2′7′-bis(2-carboxyethyl)-5,6-carboxyfluorescein (BCECF). NHE activity was measured by spectrofluorometric methods using this dye and by amiloride sensitive isotopic ^22Na^+cellular uptake. The cells were acidified by exposure to ammonium chloride in the absence of sodium to eliminate sodium and deactivate the proton pumps. The ammonium chloride was washed out by exposing the cells to tetramethyl ammonium chloride in bicarbonate free medium. […] Sodium then was added back at various concentrations (see the abscissa of FIGS. 5a and 5b) to drive the antiporters (human NHE3 in FIG. 5a and human NHE1 in FIG. 5b). The antiporters were driven at different rates, as evidenced by the cellular pH change rate, depending on the amount of sodium added.
As noted above, it has been concluded that squalamine inhibits NHE3 and not NHE1. […] Such inhibitors affect only the absolute number of protons that can be secreted by the cell (i.e., “Vmax”), if one looks at the kinetic characteristics of the inhibition. […] Note the following Table 1, which correlates to data collected in the test of FIG. 5a.

[2] = target: T2, rabbit NHE3 (Oryctolagus cuniculus, UniProt P26432); experiment: NHE activity, rabbit NHE3; assay type: cell-based; settings: for decrease of Vmax of rabbit NHE3: 1 hour pretreatment
T2 construct: expressed in transfected cells

[3] = system: NHE; experiment: Direct addition to PS 120 fibroblasts during measurement of exchanger activity; assay type: cell-based; settings: no pretreatment
Text: Direct addition of squalamine to PS 120 fibroblasts during measurement of the exchanger activity had no effect.

[4] = Pharmacokinetic study, half-life; settings: in vivo
Method: A pharmacokinetic study of squalamine was performed to ascertain the residence time of squalamine in the body. FIGS. 6a to 6c illustrate the test results where squalamine was administered subcutaneously (50 mg/kg, FIG. 6a), intraperitoneally (dose 240 μg; 10 mg/kg, FIG. 6b), and intravenously (10 mg/kg, FIG. 6c).

[5] = system: rabbit corneas; experiment: Inflammation in rabbit cornea without angiogenic stimulus; assay type: in vivo; settings: pellets with 2%, 10% and 20% squalamine by weight
Method: In the rabbit corneal micropocket assay test, if the rabbit cornea becomes inflamed, this inflammation can lead to the formation of new blood vessels in the cornea. Such inflammation would skew the test results. Therefore, tests were conducted to determine whether squalamine, in and of itself, was responsible for any inflammatory response in the cornea. Several non-bioresorbable ethylene/vinyl acetate copolymer pellets were loaded with different concentrations of squalamine, namely, 2%, 10%, and 20% squalamine, by weight.

[6] = system: rat 9L glioma; experiment: Glioma lethality study, rat glioma implanted into rat brain; assay type: in vivo; settings: 20 mg/kg/day i.p. from three days after implantation
Text: FIG. 10 illustrates survival test results using squalamine in a glioma lethality study with a rat 9L glioma introduced into the brains of healthy rats;
In view of these test results, applicants tested squalamine in an animal model for brain cancer. To test the effect of squalamine on tumors located in the brain, small sections (1 mm3) of existing rat gliomas were taken from rat flanks where they were being maintained and were implanted into the rat brains in two groups of rats. Thus, in this model, the tumors were viable when placed in the rat brain. Three days after implantation, and after some vasculature had developed, treatment with 20 mg/kg/day of squalamine (i.p.) was initiated in one group of rats. The control animals (“vehicle control” in FIG. 10) were given the carrier vehicle only (no squalamine), and the other animals were treated with squalamine (“Squalamine” in FIG. 10).

[7] = system: H460 human lung adenocarcinoma line; experiment: Nude mouse xenograft model of lung cancer with cisplatin, H460; assay type: in vivo; settings: started on day 4 or 5, daily i.p.
Text: (§1) Studies in a nude mouse xenograft model of lung cancer have been carried out using several human lung cancer lines which differ in their growth rate. […] The experimental lung cancer model design involves subcutaneous injection of 5×10^6 tumor cells followed by a single injection of the chemotherapeutic drug on day 3 or 4. […] Groups of mice receiving squalamine alone started receiving the aminosterol on the same day as aminosterol treatment in the combination chemotherapy groups. Tumor volumes were then determined at termination of the experiment and compared.

[8] = system: Calu-6 human lung adenocarcinoma line; experiment: Nude mouse xenograft model of lung cancer with cisplatin, Calu-6; assay type: in vivo; settings: started on day 4 or 5, daily i.p.
Text: as §1

[9] = system: Human androgen dependent LNCaP cells; experiment: LNCaP xenograft with hormonal ablation (Example 7); assay type: in vivo, athymic mice
Method: Human androgen dependent LNCaP cells (2×10^6 cells/flank in both flanks) were implanted subcutaneously with an equal volume of Matrigel™ in forty athymic mice. These animals were followed with periodic bleedings until serum human PSA levels exceeded 100 ng/mL and tumor volume measurements exceeded 1000 mm^3 (approximately six weeks after implantation). All animals were then surgically castrated and were randomized into five treatment groups with 8-10 animals per group. One group of animals was not treated further (controls), while a second group immediately began daily intraperitoneal injection of 20 mg/kg/day squalamine (five days per week with a two day respite). A third group of animals began to receive squalamine (20 mg/kg/day squalamine, five days per week with a two day respite) when their serum human PSA levels reached values of 4-10 ng/mL. A fourth group of mice began squalamine treatment (20 mg/kg/day squalamine, five days per week with a two day respite)when serum human PSA values reached 20-40 ng/mL, and a fifth group began squalamine treatment when serum human PSA levels reached 100 ng/mL.
Similarly, the serum human PSA levels fell to undetectable levels with a nadir at two weeks after castration, but by week three the serum human PSA levels began to rise in all control animals. […] For animals treated with squalamine concomitant with the fall in human PSA after castration, six of ten animals were treated for 6-10 weeks. Three mice in this group never experienced a post-orchiectomy PSA nadir, and one mouse experienced an early death of unknown etiology. The remaining six animals in this group experienced a post-orchiectomy PSA nadir of less than 1 ng/mL and maintained this negligible level for the duration of squalamine therapy.
Tissue histology was carried out on the tumor masses (or the site of tumor implantation, in the instance of the animals which underwent successful squalamine treatment) to examine the distribution of integrins in these tissues. […] Thus, part of the mechanism by which squalamine successfully alters LNCaP tumor growth is by interfering with cellular integrin expression that is associated with tumor aggressiveness.

[10] = tissue histology after successful squalamine treatment

T2 sequence (P26432 30-832): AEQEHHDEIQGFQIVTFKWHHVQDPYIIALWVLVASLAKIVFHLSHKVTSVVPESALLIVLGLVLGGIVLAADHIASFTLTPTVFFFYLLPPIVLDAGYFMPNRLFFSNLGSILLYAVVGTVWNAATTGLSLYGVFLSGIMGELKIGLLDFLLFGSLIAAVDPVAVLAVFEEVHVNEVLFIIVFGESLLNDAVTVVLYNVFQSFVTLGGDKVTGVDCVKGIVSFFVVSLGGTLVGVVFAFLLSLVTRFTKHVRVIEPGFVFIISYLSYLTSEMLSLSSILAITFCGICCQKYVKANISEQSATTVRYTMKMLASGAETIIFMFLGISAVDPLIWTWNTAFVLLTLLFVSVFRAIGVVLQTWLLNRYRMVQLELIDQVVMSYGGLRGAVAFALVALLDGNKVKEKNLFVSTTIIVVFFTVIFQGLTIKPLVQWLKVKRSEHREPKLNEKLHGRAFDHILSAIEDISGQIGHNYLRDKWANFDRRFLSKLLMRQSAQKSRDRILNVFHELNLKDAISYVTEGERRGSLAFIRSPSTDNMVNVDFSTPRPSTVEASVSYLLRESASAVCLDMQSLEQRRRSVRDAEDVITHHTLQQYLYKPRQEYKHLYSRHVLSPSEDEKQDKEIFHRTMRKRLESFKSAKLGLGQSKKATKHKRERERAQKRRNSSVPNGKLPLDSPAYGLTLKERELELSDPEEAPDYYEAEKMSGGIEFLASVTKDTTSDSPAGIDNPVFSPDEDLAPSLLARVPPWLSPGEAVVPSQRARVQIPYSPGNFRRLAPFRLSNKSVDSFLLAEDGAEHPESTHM
T1 sequence (P48764 26-834): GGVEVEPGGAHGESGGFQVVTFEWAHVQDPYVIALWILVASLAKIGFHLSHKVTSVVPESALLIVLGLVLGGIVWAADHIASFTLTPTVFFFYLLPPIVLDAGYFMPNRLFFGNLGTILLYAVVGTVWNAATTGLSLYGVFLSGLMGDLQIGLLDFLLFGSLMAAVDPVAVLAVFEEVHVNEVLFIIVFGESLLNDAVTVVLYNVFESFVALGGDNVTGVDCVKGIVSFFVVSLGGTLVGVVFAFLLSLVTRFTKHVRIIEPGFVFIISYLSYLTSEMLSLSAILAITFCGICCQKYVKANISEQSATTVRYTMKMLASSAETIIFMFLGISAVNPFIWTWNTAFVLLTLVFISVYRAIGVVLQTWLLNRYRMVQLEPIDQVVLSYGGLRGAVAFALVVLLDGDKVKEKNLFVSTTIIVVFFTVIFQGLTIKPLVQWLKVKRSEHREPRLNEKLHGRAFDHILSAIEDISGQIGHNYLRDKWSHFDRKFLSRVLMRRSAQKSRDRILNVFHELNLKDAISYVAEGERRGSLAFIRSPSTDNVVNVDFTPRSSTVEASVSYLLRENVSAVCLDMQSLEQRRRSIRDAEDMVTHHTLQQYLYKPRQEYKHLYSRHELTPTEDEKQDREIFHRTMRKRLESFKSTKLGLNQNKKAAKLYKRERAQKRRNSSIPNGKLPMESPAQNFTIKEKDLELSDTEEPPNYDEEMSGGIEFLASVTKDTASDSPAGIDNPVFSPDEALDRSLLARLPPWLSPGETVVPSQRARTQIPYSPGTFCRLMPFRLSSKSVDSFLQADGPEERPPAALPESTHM

## CC(C)[C@@H](CC[C@@H](C)[C@H]1CC[C@H]2[C@@H]3[C@H](O)C[C@H]4C[C@@H](NCCCNCCCCN)CC[C@]4(C)[C@H]3CC[C@]12C)OS(=O)(=O)O [Squalamine, squalamine]
[1]; 7 μg/ml squalamine, acid loaded cells
  effect on human NHE3 antiporter (pH change rate): inhibits human NHE3
[1]; transfected cells
  time before NHE3 inhibition effect was observed: at least 30 minutes
[2]
  time dependence of effect on Vmax: maximum effect occurring at one hour exposure
[2]; 1 μg squalamine/ml
  decrease of Vmax of rabbit NHE3: 13%
[2]; 5 μg squalamine/ml
  decrease of Vmax of rabbit NHE3: 47%
[2]; 7 μg squalamine/ml
  decrease of Vmax of rabbit NHE3: 57%
[2]; after removing the cells from the medium
  reversibility of effect on Vmax: fully reversible within three hours
[2]; similar tests
  effect on rabbit NHE3: inhibited
[3]
  effect of direct addition during measurement of exchanger activity: no effect
[4]; ip, intraperitoneally, dose 240 μg, 10 mg/kg
  half-life: 2.87 h
[4]; iv, intravenously, 10 mg/kg
  half-life: 0.583 h
[4]; sc, subcutaneously, 50 mg/kg
  half-life: 5.6 h
[5]
  inflammation in the cornea: did not induce inflammation
[6]
  increase in mean survival time: 38%
  mean survival time: 24.9 days
[7]
  tumor growth, monotherapy: minimal effects on tumor growth
[8]
  tumor growth, monotherapy: minimal effects on tumor growth
[9]; 20 mg/kg/day i.p. five days per week, 6-10 weeks from castration, six animals
  post-orchiectomy PSA nadir: less than 1 ng/mL
[9]; 20 mg/kg/day i.p. from castration
  tumor masses: eventually disappeared in all six animals
[9]; [10]
  expression of the integrin α6β4: increase
  expression of the integrin αvβ3: reduction in the expression

Source: patent US6596712B2, “Treatment of carcinomas using squalamine in combination with other anti-cancer agents or modalities” (Genaera Corporation, priority 1996, dated 2003)
